# Experimental data: patent US12655107B2 (The United States of America, as represented by the …, priority 2018, dated 2026)
# Where “and” joins values, the source holds several entries; their conditions need not be identical. Equal entries are not always repeated.
# Experiments:
# Tdp1 = Tdp1 (Homo sapiens, UniProt Q9NUW8); experiment: Tdp1 inhibition gel-based assay; conditions: IC50 Tdp1 (μM), Table 6; replicate values listed in one cell
# Experimental: The indenoisoquinoline 10 was used as the positive control.
# Gel-based assay. […] Gels were dried and exposed to a PhosphorImager screen (GE Healthcare). Gel images were scanned using a Typhoon FLA 9500 scanner (GE Healthcare), and densitometry analyses were performed using the ImageQuant software (GE Healthcare).
# Top1 = target: T1, Top1 (Homo sapiens, UniProt P11387); experiment: Top1-mediated DNA cleavage assay; assay type: biochemical; conditions: inhibition relative to 1 μM CPT, Table 6
# T1 sequence (P11387 1-765): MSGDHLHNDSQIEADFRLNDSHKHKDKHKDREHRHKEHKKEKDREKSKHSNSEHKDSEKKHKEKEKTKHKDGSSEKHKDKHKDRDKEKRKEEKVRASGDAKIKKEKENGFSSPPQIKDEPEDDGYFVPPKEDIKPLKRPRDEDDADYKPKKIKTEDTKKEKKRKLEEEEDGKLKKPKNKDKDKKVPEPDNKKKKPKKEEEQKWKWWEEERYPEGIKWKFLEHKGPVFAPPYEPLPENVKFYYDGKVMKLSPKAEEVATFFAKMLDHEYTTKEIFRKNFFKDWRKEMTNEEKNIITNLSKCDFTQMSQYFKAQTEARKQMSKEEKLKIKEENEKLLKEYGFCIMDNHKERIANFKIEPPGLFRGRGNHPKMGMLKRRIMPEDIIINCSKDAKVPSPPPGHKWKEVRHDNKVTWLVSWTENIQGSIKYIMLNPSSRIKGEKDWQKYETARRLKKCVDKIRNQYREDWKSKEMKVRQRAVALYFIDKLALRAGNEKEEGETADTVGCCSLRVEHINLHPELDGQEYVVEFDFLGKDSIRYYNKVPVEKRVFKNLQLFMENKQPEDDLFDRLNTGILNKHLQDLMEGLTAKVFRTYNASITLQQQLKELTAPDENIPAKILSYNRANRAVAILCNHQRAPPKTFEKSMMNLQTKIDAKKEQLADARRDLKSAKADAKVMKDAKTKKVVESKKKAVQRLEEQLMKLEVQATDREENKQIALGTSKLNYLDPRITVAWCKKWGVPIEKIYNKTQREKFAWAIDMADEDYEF
# Sequence of Tdp1 (Q9NUW8 whole entry): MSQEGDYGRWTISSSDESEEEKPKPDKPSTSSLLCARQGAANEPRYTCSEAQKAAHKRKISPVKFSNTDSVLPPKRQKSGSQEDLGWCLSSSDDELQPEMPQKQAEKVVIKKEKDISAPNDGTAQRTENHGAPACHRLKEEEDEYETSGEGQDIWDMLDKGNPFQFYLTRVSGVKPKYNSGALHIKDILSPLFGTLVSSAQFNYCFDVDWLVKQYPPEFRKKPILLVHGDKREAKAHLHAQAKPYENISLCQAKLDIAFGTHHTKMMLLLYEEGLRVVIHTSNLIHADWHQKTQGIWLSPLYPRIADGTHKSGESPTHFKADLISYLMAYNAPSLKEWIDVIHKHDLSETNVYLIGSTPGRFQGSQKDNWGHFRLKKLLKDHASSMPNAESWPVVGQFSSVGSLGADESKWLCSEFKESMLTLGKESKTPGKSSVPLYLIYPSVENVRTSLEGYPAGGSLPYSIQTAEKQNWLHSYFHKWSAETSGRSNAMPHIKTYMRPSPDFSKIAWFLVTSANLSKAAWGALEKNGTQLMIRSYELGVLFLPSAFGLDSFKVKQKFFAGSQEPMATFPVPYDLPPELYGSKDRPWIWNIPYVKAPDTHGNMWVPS
IC50 (Tdp1),Top1 cleavage (Top1),SMILES
> 111 µM,+ (+ is 20-50%),COc1cc2c(=O)n(CCN(C)C)c3c4cc5c(cc4ccc3c2cc1O)OCO5 [TWL-119]
> 111 µM,+ (+ is 20-50%),COc1ccc2c(=O)n(CCN(C)C)c3c4ccccc4ccc3c2c1 [TWL-17]
> 111 µM,+ (+ is 20-50%),CN(C)CCn1c(=O)c2c3c(ccc2c2ccc4ccccc4c21)OCO3 [TWL-185]
> 111 µM,+ (+ is 20-50%),COc1ccc2c(ccc3c4ccccc4c(=O)n(CCN(C)C)c23)c1 [TWL-9]
49.4 ± 1.4 µM,+ (+ is 20-50%),COc1ccc2c(c1)c(=O)n(CCN(C)C)c1c3ccccc3ccc21 [TWL-25]
18.2 ± 1.15 µM,+ (+ is 20-50%),CN(C)CCn1c(=O)c2cc3c(cc2c2ccc4ccccc4c21)OCO3 [TWL-40]
> 111 µM,+ (+ is 20-50%),CN(C)CCn1c(=O)c2cc(O)c(O)cc2c2ccc3cc4c(cc3c21)OCO4 [TWL-170]
> 111 µM (2×) and 74.1 µM and 75.9 µM,+ (+ is 20-50%),CN(C)CCn1c(=O)c2cc(O)ccc2c2ccc3ccccc3c21 [TWL-25A]
> 111 µM,+ (+ is 20-50%),COc1cc2c(=O)n(CCN(C)C)c3c4ccccc4ccc3c2cc1OC [TWL-44]
11 µM and 30 µM and 72 µM,+ (+ is 20-50%),COc1ccc2c(c1O)c(=O)n(CCN(C)C)c1c3cc4c(cc3ccc21)OCO4 [TWL-211]
> 111 µM,+ (+ is 20-50%),CN(C)CCn1c(=O)c2ccccc2c2ccc3cc4c(cc3c21)OCO4 [TWL-67]

# The remaining lines, values behind:
SMILES,IC50 (Tdp1),Top1 cleavage (Top1)
CN(C)CCn1c(=O)c2cc3c(cc2c2ccc4cc5c(cc4c21)OCO5)OCO3 [TWL-37],27.6 ± 19 µM,+ (+ is 20-50%)
COc1cc2c(NCCCN3CCN(C)CC3)nc3c4cc5c(cc4ccc3c2cc1OC)OCO5 [NTD-312],> 111 µM,+ (+ is 20-50%)
CCN(CC)CCSc1nc2c3cc4c(cc3ccc2c2cc(OC)c(OC)cc12)OCO4 [NTD-404],> 111 µM,++ (++ is 50-75%)
COc1cc2c(OCCCN3CCC3)nc3c4cc5c(cc4ccc3c2cc1OC)OCO5 [NTD-225],20.6 ± 4.46 µM,0 (0 is inactive)
COc1cc2c(NCCCn3ccnc3)nc3c4cc5c(cc4ccc3c2cc1OC)OCO5 [NTD-314],> 111 µM,+ (+ is 20-50%)
COc1cc2c(=O)n(CCN(C)C)c3c4cc(O)c(O)cc4ccc3c2cc1OC [TWL-164],> 111 µM,++ (++ is 50-75%)
COc1cc2c(OCCCOC(=O)c3ccc(Br)cc3)nc3c4cc5c(cc4ccc3c2cc1OC)OCO5 [NTD-209],> 111 µM,+ (+ is 20-50%)
COc1cc2c(NCCN3CCCCC3)nc3c4cc5c(cc4ccc3c2cc1OC)OCO5 [NTD-313],> 111 µM,+ (n = 2) (+ is 20-50%)
CCN1CCN(CCCOc2nc3c4cc5c(cc4ccc3c3cc(OC)c(OC)cc23)OCO5)CC1 [NTD-207],> 111 µM,+ (+ is 20-50%)
COc1cc2c(OCCCOC(=O)c3ccccc3)nc3c4cc5c(cc4ccc3c2cc1OC)OCO5 [NTD-208],> 111 µM,+ (+ is 20-50%)
COc1cc2c(NCCN)nc3c4cc5c(cc4ccc3c2cc1OC)OCO5 [NTD-325],72 µM and 107 µM,0 (0 is inactive)
CCN(CC)CCNc1nc2c3cc4c(cc3ccc2c2cc(OC)c(OC)cc12)OCO4 [NTD-305],> 111 µM,+ (+ is 20-50%)
